Drawing on patent publication US8022215B2, “Fused pyridone M1 receptor positive allosteric modulators” (Merck Sharp & Dohme Corp., priority 2008, dated 2011), this text covers EC50 for 13 molecules.

One assay concerns the target T1, acetylcholine muscarinic M1 receptor (Homo sapiens, UniProt P11229).
T1 construct: expressed in transfected cells; host or cells: CHOnfat (CHO cells, Geneticin selection)
T1 sequence (P11229 1-460): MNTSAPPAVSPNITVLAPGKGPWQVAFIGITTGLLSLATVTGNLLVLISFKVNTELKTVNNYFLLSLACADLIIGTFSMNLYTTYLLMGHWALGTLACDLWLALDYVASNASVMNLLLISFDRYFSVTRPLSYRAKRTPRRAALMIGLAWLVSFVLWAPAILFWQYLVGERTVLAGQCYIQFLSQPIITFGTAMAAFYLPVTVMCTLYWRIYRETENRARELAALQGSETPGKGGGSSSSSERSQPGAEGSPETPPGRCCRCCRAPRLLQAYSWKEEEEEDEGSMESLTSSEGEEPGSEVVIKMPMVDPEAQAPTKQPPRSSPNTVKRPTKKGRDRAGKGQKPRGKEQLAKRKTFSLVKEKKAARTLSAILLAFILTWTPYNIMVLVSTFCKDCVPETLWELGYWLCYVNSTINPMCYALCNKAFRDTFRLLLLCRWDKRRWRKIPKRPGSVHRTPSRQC
Briefly: muscarinic FLIPR assay: potentiation of acetylcholine (EC20)-stimulated intracellular Ca2+ in CHOnfat/hM1 cells. It counts as cell-based.
Conditions: not given
As for the experimental part: The assay studies the effect of one or several concentrations of test compounds on basal or acetylcholine-stimulated Ca^2+ levels using FLIPR.
Compounds are prepared and subjected to a preincubation period of 4 min. Thereafter, a single EC20 concentration of acetylcholine is added to each well (3 nM final). The intracellular Ca^2+ level of each sample is measured and compared to an acetylcholine control to determine any modulatory activity.
Cells: CHOnfat/hM1, hM2, hM3 or hM4 cells are plated 24 hr before the assay at a density of 18,000 cells/well (100 μL) in a 384 well plate. CHOnfat/hM1 and CHOnfat/hM3 Growth Medium: 90% DMEM (Hi Glucose); 10% HI FBS; 2 mM L-glutamine; 0.1 mM NEAA; Pen-Strep; and 1 mg/ml Geneticin, are added. For M2Gqi5CHOnfat and M4Gqi5CHOnfat cells, an additional 600 μg/ml hygromycin is added.
Buffers. […] Dye Loading Buffer: Assay Buffer plus 1% Fetal Bovine Serum and Fluo-4AM/Pluronic Acid Mixture. […] 20% Pluronic Acid Solution stock, with a concentration of 0.04% in Buffer, 0.02% in Assay.
65 μL of 2 mM Fluo-4AM are mixed with 130 μL of 20% Pluronic Acid. The resulting solution and 650 μL FBS is added to the assay buffer for a total volume of 65 mL. Positive Controls: 4-Br-A23187: 10 mM in DMSO; final concentration 10 μM. Acetylcholine: 10 mM in water, working stock at both 20 μM and 30 μM in assay buffer, final concentration of 10 μM. This is used to check the maximum stimulation of the CHOK1/hM1 cells. 20 μM (2×) acetylcholine is added in the preincubation part of the assay, and the 30 μM (3×) stock is added in the second part. (EC20)Acetylcholine: 10 mM in water, working stock of 9 nM (3×), and final concentration in assay is 3 nM. This is used after the preincubation with test compounds. Addition of the EC20 acetylcholine to each well with a test compound will ascertain any modulator activity. 24 wells contain 3 nM acetylcholine alone as a control.
Determining Activity of Putative Compounds:
Four 96-well plates are combined into a 384-well plate using Mosquito Nanolitre Pipetting System by transferring 1 μl of serial diluted compounds to each well, and 1 mM acetylcholine (100× stock concentration) were added as a control. Using Temo, 49 μl assay buffer is added to each well of the 384-well plate right before assay.
In a 96-well Whatman 2 ml Uniplate, 9 nM acetylcholine (3×) is pipetted into wells corresponding to the screening compounds and into control wells. The 30 μM acetylcholine control (3×) is added into control wells and the 3× agonist plate is transferred into a 384-well plate.
Cells are washed three times with 100 μL of buffer, leaving 30 μL of buffer in each well. Using Multimek, 30 μL of Dye Loading Buffer is added into each well and incubated at 37° C., 5% CO2 for up to one hr.
After 60 min, the cells are washed three times with 100 μL of buffer, leaving 30 μL of buffer in each well. The cell plate, screening plate, and agonist addition plates are placed on the platform in the FLIPR and the door is closed. A signal test to check background fluorescence and basal fluorescence signal is performed. Laser intensity is adjusted if necessary.
4 min of preincubation with the test compounds is provided to determine any agonist activity on the M1 receptor by comparison to the 1 mM acetylcholine control. After preincubation, the EC20 value of acetylcholine (3 nM final) is added to determine any modulator activity.
The inflection point is calculated from the FLIPR values and is a measure of activity.
As for `O=C(O)c1cn(Cc2ccc(-c3ccccc3)cc2)c2c(c1=O)C(NCc1ccccc1)CCC2` (stereo not shown) [Example 72], the EC50 came to 2200 nM.

Consider `CNC1CCCc2c1c(=O)c(C(=O)O)cn2Cc1ccc(-c2ccccc2)cc1` (stereo not shown) [Example 70], for which the EC50 came out at 8370 nM.

As to `O=C(O)c1cn(Cc2ccc(-c3ccccc3)cc2)c2c(c1=O)C(N1CCCC1)CCC2` (stereo not shown) [Example 73], the EC50 was 4100 nM.

On to `O=C(O)c1cn(C/C=C/c2ccccc2F)c2c(c1=O)C(=O)CCC2` [Example 15, 1-[(2E)-3-(2-Fluorophenyl)prop-2-en-1-yl]-4,5-dioxo-1,4,5,6,7,8-hexahydroquinoline-3-carboxylic acid], for which the EC50 is 64000 nM.

`COC1CCCc2c1c(=O)c(C(=O)O)cn2Cc1ccc(-c2ccccc2)cc1` (racemic) [Example 62, (±)-1-(Biphenyl-4-ylmethyl)-5-methoxy-4-oxo-1,4,5,6,7,8-hexahydroquinoline-3-carboxylic acid]: the EC50 stood at 1100 nM.

Regarding `N#Cc1ccc(-c2ccc(Cn3cc(C(=O)O)c(=O)c4c3CCCC4O)cc2)cc1` (stereo not shown) [Example 41], the EC50 amounted to 318 nM.

Take `CCC1(O)CCCc2c1c(=O)c(C(=O)O)cn2Cc1ccc(-c2ccccc2)cc1` (racemic) [Example 68, (±)-1-(Biphenyl-4-ylmethyl)-5-ethyl-5-hydroxy-4-oxo-1,4,5,6,7,8-hexahydroquinoline-3-carboxylic acid]: the EC50 worked out at 9050 nM.

Take `Cn1ccc2cc(-c3ccc(Cn4cc(C(=O)O)c(=O)c5c4CCCC5O)nc3)ccc21` (stereo not shown) [Example 66]: the EC50 was 199 nM.

Turning to `CCCCNC1CCCc2c1c(=O)c(C(=O)O)cn2Cc1ccc(-c2ccccc2)cc1` (stereo not shown) [Example 71], the EC50 was determined as 1500 nM.

Consider `COc1ccc(-c2ccc(Cn3cc(C(=O)O)c(=O)c4c3CCCC4O)cc2)cn1` (stereo not shown) [Example 53], for which the EC50 was determined as 323 nM.

As for `COc1ccccc1-c1ccc(Cn2cc(C(=O)O)c(=O)c3c2CCCC3O)cc1` (racemic) [Example 27, (±)-5-Hydroxy-1-[(2′-methoxybiphenyl-4-yl)methyl]-4-oxo-1,4,5,6,7,8-hexahydroquinoline-3carboxylic acid], the EC50 came out at 3140 nM.

On to `O=C(O)c1cn(Cc2ccc(-c3ccccc3)cc2)c2c(c1=O)CCC2` [Example 1, 1-(Biphenyl-4-ylmethyl)-4-oxo-4,5,6,7-tetrahydro-1H-cyclopenta[b]pyridine-3-carboxylic acid], for which the EC50 was found to be 812 nM.

Still in this assay, the particulars now being: CHOnfat/hM1 cells, FLIPR, 4 min preincubation, then EC20 acetylcholine (3 nM final); read-out: IP Value (inflection point).
Take `O=C(O)c1cn(Cc2ccc(-c3ccccc3)cc2)c2c(c1=O)C(=O)CCC2` [Example 6]: the EC50 stood at 806 nM.
